In PubChem BioAssay (NCI):
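Five concentrations, 48 hours, 96-well plates. Definition used: TGI = concentration required for complete inhibition of growth.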

Legend:
Test in all cases: DTP human tumour cell line panel, 48 h
LOX IMVI melanoma = system: LOX IMVI melanoma
SF-539 CNS = system: SF-539 CNS
HCT-116 colon = system: HCT-116 colon
HCT-15 colon = system: HCT-15 colon
SK-OV-3 ovarian = system: SK-OV-3 ovarian
DU-145 prostate = system: DU-145 prostate
CCRF-CEM leukemia = system: CCRF-CEM leukemia
NCI-H23 lung = system: NCI-H23 lung
M14 melanoma = system: M14 melanoma
K-562 leukemia = system: K-562 leukemia
OVCAR-8 ovarian = system: OVCAR-8 ovarian
786-0 renal = system: 786-0 renal
TK-10 renal = system: TK-10 renal
NCI-H522 lung = system: NCI-H522 lung
HOP-92 NSCLC = system: HOP-92 NSCLC
MOLT-4 leukemia = system: MOLT-4 leukemia
PC-3 prostate = system: PC-3 prostate
OVCAR-5 ovarian = system: OVCAR-5 ovarian
SK-MEL-5 melanoma = system: SK-MEL-5 melanoma
EKVX NSCLC = system: EKVX NSCLC
SR leukemia = system: SR leukemia
UACC-62 melanoma = system: UACC-62 melanoma
SNB-19 CNS = system: SNB-19 CNS
NCI-H460 lung = system: NCI-H460 lung
U251 CNS = system: U251 CNS
OVCAR-3 ovarian = system: OVCAR-3 ovarian
HOP-62 NSCLC = system: HOP-62 NSCLC
HS 578T breast = system: HS 578T breast
SW-620 colon = system: SW-620 colon
T-47D breast = system: T-47D breast
ACHN renal = system: ACHN renal
MDA-MB-435 = system: MDA-MB-435
NCI/ADR-RES ovarian = system: NCI/ADR-RES ovarian
SK-MEL-2 melanoma = system: SK-MEL-2 melanoma
MDA-N = system: MDA-N
SNB-75 CNS = system: SNB-75 CNS
RPMI-8226 leukemia = system: RPMI-8226 leukemia
SF-295 CNS = system: SF-295 CNS
COLO 205 colon = system: COLO 205 colon
SN12C renal = system: SN12C renal
KM12 colon = system: KM12 colon
SF-268 CNS = system: SF-268 CNS
A498 renal = system: A498 renal
MALME-3M melanoma = system: MALME-3M melanoma
A549 NSCLC = system: A549 NSCLC
IGROV1 ovarian = system: IGROV1 ovarian
RXF 393 renal = system: RXF 393 renal
UO-31 renal = system: UO-31 renal
OVCAR-4 ovarian = system: OVCAR-4 ovarian
HT29 colon = system: HT29 colon
BT-549 breast = system: BT-549 breast
SK-MEL-28 melanoma = system: SK-MEL-28 melanoma
MCF7 breast = system: MCF7 breast
CAKI-1 renal = system: CAKI-1 renal
MDA-MB-231 breast = system: MDA-MB-231 breast
HL-60(TB) leukemia = system: HL-60(TB) leukemia
UACC-257 melanoma = system: UACC-257 melanoma
NCI-H226 lung = system: NCI-H226 lung

CC(C)(C)c1ccc(O)c(C[N+](C)(C)C)c1
TGI (LOX IMVI melanoma): > 100 µM
TGI (SF-539 CNS): > 100 µM
TGI (HCT-116 colon): > 100 µM
TGI (HCT-15 colon): > 100 µM
TGI (SK-OV-3 ovarian): > 100 µM
TGI (DU-145 prostate): > 100 µM
TGI (CCRF-CEM leukemia): > 100 µM
TGI (NCI-H23 lung): > 100 µM
TGI (M14 melanoma): > 100 µM
TGI (K-562 leukemia): > 100 µM
TGI (OVCAR-8 ovarian): > 100 µM
TGI (786-0 renal): > 100 µM
TGI (TK-10 renal): > 100 µM
TGI (NCI-H522 lung): > 100 µM
TGI (HOP-92 NSCLC): > 100 µM
TGI (MOLT-4 leukemia): > 100 µM
TGI (PC-3 prostate): > 100 µM
TGI (OVCAR-5 ovarian): > 100 µM
TGI (SK-MEL-5 melanoma): > 100 µM
TGI (EKVX NSCLC): > 100 µM
TGI (SR leukemia): > 100 µM
TGI (UACC-62 melanoma): > 100 µM
TGI (SNB-19 CNS): > 100 µM
TGI (NCI-H460 lung): > 100 µM
TGI (U251 CNS): > 100 µM
TGI (OVCAR-3 ovarian): > 100 µM
TGI (HOP-62 NSCLC): > 100 µM
TGI (HS 578T breast): > 100 µM
TGI (SW-620 colon): > 100 µM
TGI (T-47D breast): > 100 µM
TGI (ACHN renal): > 100 µM
TGI (MDA-MB-435): > 100 µM
TGI (NCI/ADR-RES ovarian): > 100 µM
TGI (SK-MEL-2 melanoma): > 100 µM
TGI (MDA-N): > 100 µM
TGI (SNB-75 CNS): > 100 µM
TGI (RPMI-8226 leukemia): > 100 µM
TGI (SF-295 CNS): > 100 µM
TGI (COLO 205 colon): > 100 µM
TGI (SN12C renal): > 100 µM
TGI (KM12 colon): > 100 µM
TGI (SF-268 CNS): > 100 µM
TGI (A498 renal): > 100 µM
TGI (MALME-3M melanoma): > 100 µM
TGI (A549 NSCLC): > 100 µM
TGI (IGROV1 ovarian): > 100 µM
TGI (RXF 393 renal): > 100 µM
TGI (UO-31 renal): > 100 µM
TGI (OVCAR-4 ovarian): > 100 µM
TGI (HT29 colon): > 100 µM
TGI (BT-549 breast): > 100 µM
TGI (SK-MEL-28 melanoma): > 100 µM
TGI (MCF7 breast): > 100 µM
TGI (CAKI-1 renal): > 100 µM
TGI (MDA-MB-231 breast): > 100 µM

CC(=O)Oc1ccc2c(c1OC(C)=O)CCC1C2=CC[C@]2(C)C(=O)CCC12 (some centres not stated)
TGI (SF-539 CNS): 29.1 µM
TGI (HCT-116 colon): 18.5 µM
TGI (HCT-15 colon): 23.5 µM
TGI (SK-OV-3 ovarian): 87.4 µM
TGI (DU-145 prostate): 30.1 µM
TGI (CCRF-CEM leukemia): 12.9 µM
TGI (NCI-H23 lung): 46.9 µM
TGI (M14 melanoma): 26.1 µM
TGI (K-562 leukemia): 39.5 µM
TGI (OVCAR-8 ovarian): 27.7 µM
TGI (TK-10 renal): 27.7 µM
TGI (NCI-H522 lung): 5.01 µM
TGI (HOP-92 NSCLC): 22.4 µM
TGI (MOLT-4 leukemia): 19.4 µM
TGI (PC-3 prostate): 17.3 µM
TGI (OVCAR-5 ovarian): 30.3 µM
TGI (SK-MEL-5 melanoma): 1.55 µM
TGI (EKVX NSCLC): 30.1 µM
TGI (SR leukemia): 32.9 µM
TGI (UACC-62 melanoma): 25.5 µM
TGI (SNB-19 CNS): 32.8 µM
TGI (NCI-H460 lung): 40.3 µM
TGI (OVCAR-3 ovarian): 6.2 µM
TGI (HOP-62 NSCLC): 53.7 µM
TGI (HL-60(TB) leukemia): 27.5 µM
TGI (HS 578T breast): 62.5 µM
TGI (SW-620 colon): 14.5 µM
TGI (T-47D breast): 37.6 µM
TGI (ACHN renal): 24.3 µM
TGI (MDA-MB-435): 18.2 µM
TGI (NCI/ADR-RES ovarian): > 100 µM
TGI (SK-MEL-2 melanoma): 29.5 µM
TGI (MDA-N): 33.4 µM
TGI (RPMI-8226 leukemia): 8.41 µM
TGI (SF-295 CNS): 29.7 µM
TGI (COLO 205 colon): 27.7 µM
TGI (SN12C renal): 28.1 µM
TGI (KM12 colon): 33.3 µM
TGI (SF-268 CNS): 27.9 µM
TGI (MALME-3M melanoma): 28.6 µM
TGI (A549 NSCLC): 33.7 µM
TGI (IGROV1 ovarian): 18.8 µM
TGI (UO-31 renal): 21.7 µM
TGI (OVCAR-4 ovarian): 15.9 µM
TGI (HT29 colon): 32.9 µM
TGI (BT-549 breast): 30.7 µM
TGI (SK-MEL-28 melanoma): 21.3 µM
TGI (UACC-257 melanoma): 68.8 µM
TGI (MCF7 breast): 31.2 µM
TGI (CAKI-1 renal): 19 µM
TGI (MDA-MB-231 breast): 28.3 µM

CCCCC/C=C\C=C1\C(=O)C=C[C@@H]1C/C=C\CCCC(=O)O
TGI (LOX IMVI melanoma): 8.19 µM
TGI (SF-539 CNS): 12.8 µM
TGI (HCT-116 colon): 2.74 µM
TGI (HCT-15 colon): 14.9 µM
TGI (SK-OV-3 ovarian): 14.4 µM
TGI (DU-145 prostate): 15.5 µM
TGI (CCRF-CEM leukemia): 3.28 µM
TGI (NCI-H23 lung): 15.5 µM
TGI (M14 melanoma): 15.1 µM
TGI (K-562 leukemia): 60 µM
TGI (OVCAR-8 ovarian): 3.73 µM
TGI (786-0 renal): 9.73 µM
TGI (TK-10 renal): 18 µM
TGI (MOLT-4 leukemia): 60 µM
TGI (PC-3 prostate): 5.13 µM
TGI (OVCAR-5 ovarian): 9.72 µM
TGI (SK-MEL-5 melanoma): 11.2 µM
TGI (EKVX NSCLC): 5.61 µM
TGI (SR leukemia): 5.53 µM
TGI (UACC-62 melanoma): 12 µM
TGI (SNB-19 CNS): 12.1 µM
TGI (NCI-H460 lung): 16.5 µM
TGI (U251 CNS): 8.39 µM
TGI (OVCAR-3 ovarian): 9.82 µM
TGI (HOP-62 NSCLC): 8.62 µM
TGI (HL-60(TB) leukemia): 17.9 µM
TGI (HS 578T breast): 13.4 µM
TGI (SW-620 colon): 9.09 µM
TGI (NCI-H226 lung): 14.8 µM
TGI (T-47D breast): 24.5 µM
TGI (ACHN renal): 9.48 µM
TGI (MDA-MB-435): 9.16 µM
TGI (NCI/ADR-RES ovarian): 2.66 µM
TGI (SK-MEL-2 melanoma): 9.85 µM
TGI (MDA-N): 7.14 µM
TGI (SNB-75 CNS): 17.7 µM
TGI (RPMI-8226 leukemia): 3.15 µM
TGI (SF-295 CNS): 11.5 µM
TGI (COLO 205 colon): 9.36 µM
TGI (SN12C renal): 8.06 µM
TGI (KM12 colon): 11.9 µM
TGI (SF-268 CNS): 13.6 µM
TGI (A498 renal): 21.4 µM
TGI (MALME-3M melanoma): 25 µM
TGI (A549 NSCLC): 18.7 µM
TGI (IGROV1 ovarian): 8.93 µM
TGI (RXF 393 renal): 6.93 µM
TGI (UO-31 renal): 13.4 µM
TGI (OVCAR-4 ovarian): 6.28 µM
TGI (HT29 colon): 12 µM
TGI (BT-549 breast): 5.13 µM
TGI (SK-MEL-28 melanoma): 13.9 µM
TGI (UACC-257 melanoma): 14.7 µM
TGI (MCF7 breast): 12.9 µM
TGI (CAKI-1 renal): 14.9 µM
TGI (MDA-MB-231 breast): 18.7 µM
